Laboratory results: PMC10011588, “Conformational transitions and allosteric modulation in a heteromeric glycine receptor” (Nature Communications, 2023)

Experiments:
[1] = molecular target: T1, α1βB glycine receptor (ZF-α1GlyR subunit) (Danio rerio, UniProt O93430+Q6DC22); test: cryo-EM structure, […] Å ([…] glycine); EC50 from whole-cell currents in HEK […] T cells (homomeric α[…]); format: cell-based; design: gene glra1; full-length α1GlyR (NP_571477.1) with C-terminal thrombin site and 8xHis tag, 4α:1β heteropentamer; with βBGlyR (glrbb, NP_001003587.1); rat gephyrin E domain co-purified (not resolved)
T1 sequence (O93430 25-444): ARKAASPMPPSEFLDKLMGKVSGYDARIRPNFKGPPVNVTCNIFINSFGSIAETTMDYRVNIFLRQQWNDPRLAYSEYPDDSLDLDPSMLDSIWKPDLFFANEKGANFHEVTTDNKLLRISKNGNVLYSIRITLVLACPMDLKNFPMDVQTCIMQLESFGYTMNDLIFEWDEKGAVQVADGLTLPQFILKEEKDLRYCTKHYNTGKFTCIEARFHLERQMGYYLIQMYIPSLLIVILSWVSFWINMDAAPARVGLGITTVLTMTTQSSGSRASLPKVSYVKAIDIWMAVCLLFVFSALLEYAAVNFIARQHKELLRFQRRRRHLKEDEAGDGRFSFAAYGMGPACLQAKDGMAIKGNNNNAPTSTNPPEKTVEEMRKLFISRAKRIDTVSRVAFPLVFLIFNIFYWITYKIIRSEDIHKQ
T1 sequence (Q6DC22 23-494): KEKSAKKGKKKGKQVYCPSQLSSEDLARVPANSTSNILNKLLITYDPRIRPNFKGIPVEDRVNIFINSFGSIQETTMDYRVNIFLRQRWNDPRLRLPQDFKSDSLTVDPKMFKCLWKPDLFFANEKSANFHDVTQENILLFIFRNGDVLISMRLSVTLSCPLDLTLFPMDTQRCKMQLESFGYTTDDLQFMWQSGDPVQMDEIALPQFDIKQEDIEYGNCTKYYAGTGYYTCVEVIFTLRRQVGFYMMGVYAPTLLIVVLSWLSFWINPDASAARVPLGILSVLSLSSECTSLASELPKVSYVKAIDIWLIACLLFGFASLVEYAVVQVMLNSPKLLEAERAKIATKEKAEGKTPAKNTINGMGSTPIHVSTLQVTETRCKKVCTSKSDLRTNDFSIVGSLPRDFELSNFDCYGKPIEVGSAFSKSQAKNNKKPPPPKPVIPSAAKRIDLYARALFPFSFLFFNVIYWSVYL
Source text: The carboxyl oxygens form hydrogen bonds with αS153 (βS173) on Loop E

[2] = molecular target: T1, α1βB glycine receptor (ZF-α1GlyR subunit); design: gene glra1
[3] = molecular target: T2, zebrafish glycine receptor βB subunit (ZF-βBGlyR), full length (zebrafish, UniProt Q6DC22 1-494, N-glycans at N54 and N241); test: cryo-EM structure; αβGlyR-Geph-E sample co-expressed in Sf9 and co-purified in DDM, vitrified on graphene-oxide grids with 100 µM strychnine, 1 mM glycine, or 1 mM glycine and 20 µM ivermectin; no fiduciary marker; details: partners not purified
T2 construct: glycine receptor βB subunit, zebrafish, NCBI NP_001003587.1, codon-optimised full-length gene; One copy stands in the αβGlyR heteropentamer (4α:1β); also called βGlyR; GlyRβB; source: Sf9 (ExpiSf9) cells, baculovirus (pFastBacDual, polyhedrin promoter), co-expressed with α1GlyR and Geph-E
T2 sequence (looked up): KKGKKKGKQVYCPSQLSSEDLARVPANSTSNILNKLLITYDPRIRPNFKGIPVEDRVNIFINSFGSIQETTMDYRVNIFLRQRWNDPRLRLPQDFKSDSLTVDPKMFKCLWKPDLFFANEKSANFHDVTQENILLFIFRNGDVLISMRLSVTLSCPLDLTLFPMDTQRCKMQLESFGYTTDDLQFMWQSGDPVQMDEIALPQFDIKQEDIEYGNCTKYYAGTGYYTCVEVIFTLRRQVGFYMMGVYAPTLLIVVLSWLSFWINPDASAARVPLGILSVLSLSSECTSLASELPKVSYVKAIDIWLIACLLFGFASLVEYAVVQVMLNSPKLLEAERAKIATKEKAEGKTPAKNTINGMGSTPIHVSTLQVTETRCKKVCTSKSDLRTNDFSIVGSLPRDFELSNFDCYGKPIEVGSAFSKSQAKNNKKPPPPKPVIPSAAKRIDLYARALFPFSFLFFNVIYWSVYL

NCC(=O)O [glycine]
EC50 [1]: 63 ± 13 µM

O=C1C[C@@H]2OCC=C3CN4CC[C@]56c7ccccc7N1[C@H]5[C@H]2[C@H]3C[C@H]46 [strychnine]
cryo-EM structure, 2.97 Å (100 μM strychnine) [2]: Strychnine density is well-defined in αβGlyR-Stry and is essentially in the same orientation across all five subunits

B1: zebrafish glycine receptor α1 subunit (ZF-α1GlyR), full length (receptor, UniProt O93430 25-444, looked up)
chain: T1 sequence (O93430 25-444)
modifications: N-glycan at N62
notes: glycine receptor α1 subunit, zebrafish, NCBI NP_571477.1, codon-optimised full-length gene; Four copies stand in the αβGlyR heteropentamer (4α:1β); The full-length gene was expressed; also called αGlyR; GlyRα1; source: Sf9 (ExpiSf9) cells, baculovirus (pFastBacDual, p10 promoter), co-expressed with βBGlyR and Geph-E; not shown: 8x His (after a thrombin site LVPRGS), C-terminal, kept
stoichiometry N [3]: 4 α per β
